Data reported in patent US5512466A, “Control of fruit ripening and senescence in plants” (Monsanto Company, priority 1991, dated 1996).

Tests used:
[1] = tested on: ACC deaminase from bacterial strain 401 (B27457, St. Charles soil, ACC enriched); conditions: read-out: Km (ACC), crude desalted extract, Tris pH 8.0, 30° C., double reciprocal plot
Protocol: (§1) The Km for the ACC deaminases isolated from the various soil sources was determined using crude, desalted extracts. Individual strains of bacteria were grown in liquid media containing 4 g KH2 PO4, 6.5 g K2 HPO4, 1 g MgSO4.7H2 O, 2 g glucose, 1 mg FeSO4, 1 mg MnCl2, 1 mg ZnSO4, 1 mg CuSO4, 1 mg CaCl2, and 300 mg ACC, all in 1 liter H2 O. Cells were grown for 2 to 3 days at 30° C. Cells were pelleted by centrifugation and resuspended in extraction buffer containing 0.1M phosphate, pH 7.5, 1 mM EDTA, 0.1% β-mercaptoethanol. The cells were broken with a French Press, 1000 psi, and the cell debris was pelleted by centrifugation. […] Glycerol was added to the extract (20% v/v) and enzyme solutions were stored at -20° C. ACC deaminase enzyme assays were conducted as described in the Examples to follow. The assay mixture contained 100 μl of 0.2M Tris buffer, pH 8.0, 30 μl of 500 mM ACC solution, and enzyme solution to make a final volume of 200 μl. Reactions were run for 10 minutes at 30° C. The reaction was stopped with 1.8 ml of 2N HCl. After adding 300 μl 0.1% 2,4-dinitrophenylhydrazine, the mixture was incubated for 15 minutes at 30° C. The solution was then made basic by adding 2 ml of 2N NaOH. The optical density of the resulting brownish-red solution was determined at 540 nm with a spectrophotometer.
(§2) The kinetic value, Km, for ACC deaminase was determined against ACC as the enzyme substrate for each of the ACC deaminases isolated. […] An estimated Km was determined for each extracted enzyme with ACC at sub-saturating concentrations. […] Actual Km values were then determined for each extract using ACC concentrations between 0.2× and 2× of the estimated Km, or ACC concentrations between 1 and 10 mM ACC. Km values were calculated from double reciprocal plots, plotting the reciprocal of the substrate concentration on the x-axis and the reciprocal of the velocity (α-ketobutyrate formed) on the y-axis.

[2] = tested on: ACC deaminase from bacterial strain T44 (B27817, Tanzania soil); conditions: read-out: Km (ACC), crude desalted extract, Tris pH 8.0, 30° C., double reciprocal plot
Protocol: as §1, §2

[3] = tested on: ACC deaminase from bacterial strain 391 (B27447, Malaysia soil); conditions: read-out: Km (ACC), crude desalted extract, Tris pH 8.0, 30° C., double reciprocal plot
Protocol: as §1, §2

[4] = tested on: ACC deaminase from bacterial strain 392 (B27448, Peru soil); conditions: read-out: Km (ACC), crude desalted extract, Tris pH 8.0, 30° C., double reciprocal plot
Protocol: as §1, §2

[5] = tested on: ACC deaminase from bacterial strain 393 (B27449, St. Charles soil); conditions: read-out: Km (ACC), crude desalted extract, Tris pH 8.0, 30° C., double reciprocal plot
Protocol: as §1, §2

[6] = tested on: ACC deaminase from Pseudomonas isolate 3F2 (gene SEQ ID NO:15, amino acid SEQ ID NO:16); conditions: read-out: Km (ACC); strain 3F2; crude desalted extract, Tris pH 8.0, 30° C., double reciprocal plot
Protocol: as §1, §2

[7] = tested on: ACC deaminase from bacterial strain 388 (B27444, St. Charles soil, ACC enriched); conditions: read-out: Km (ACC), crude desalted extract, Tris pH 8.0, 30° C., double reciprocal plot
Protocol: as §1, §2

[8] = tested on: ACC deaminase from bacterial strain PR-1 (B27813, Puerto Rico soil); conditions: read-out: Km (ACC), crude desalted extract, Tris pH 8.0, 30° C., double reciprocal plot
Protocol: as §1, §2

NC1(C(=O)O)CC1 [ACC, 1-aminocyclopropane-1-carboxylic acid] showed a Km [1] of 7.8 mM, a Km [2] of 11.8 mM and a Km [3] of 17.4 mM. It also gave a Km [4] of 7.1 mM, a Km [5] of 5.9 mM and a Km [6] of 5.8 mM. It also gave a Km [7] of 8.6 mM and a Km [8] of 4.1 mM.
